Among the data in patent publication US9855230B2 (ViiV Healthcare UK (No. 5) Limited, priority 2014, dated 2018) are EC50 and CC50 values, retold here.

For data set [1], the system named is recombinant NL4-3 virus (nef section replaced with Renilla luciferase gene) in MT-2 cells. Description: whole plant or invertebrate. The format is cell-based, HIV. Particulars: NL43, luciferase activity in MT-2 cells infected 4-5 days with recombinant NL4-3 virus. The source says:
A recombinant NL4-3 proviral clone, in which a section of the nef gene was replaced with the Renilla luciferase gene, was used to make the reference virus used in these studies.
Supernatent was harvested after 2-3 days and the amount of virus present was titered in MT-2 cells using luciferase enzyme activity as a marker by measuring luciferase enzyme activity. Luciferase was quantitated using the EnduRen Live Cell Substrate from Promega (Madison, Wis.). Antiviral activities of compounds toward the recombinant virus were quantified by measuring luciferase activity in MT-2 cells infected for 4-5 days with the recombinant virus in the presence of serial dilutions of the compound.

The nature of data set [2]: Compound cytotoxicity (CC50), XTT-based colorimetric assay. Particulars: human; uninfected MT2 cells, day 4, XTT assay. The format is cell-based. The method, then: Compound cytotoxicity and the corresponding CC50 values were determined using the same protocol as described in the antiviral assay except that uninfected cells were used. Cytotoxicity was assessed on day 4 in uninfected MT2 cells by using a XTT (2,3-bis[2-Methoxy-4-nitro-5-sulfophenyl]-2H-tetrazolium-5-carboxyanilide inner salt)-based colorimetric assay (Sigma-Aldrich, St Louis, Mo.).

As a reminder, the CC50 is the concentration that lowers cell viability or growth by half. Read a high CC50 as lower toxicity to the cells.

Counter-ions that a name gives are not always drawn. Like-named read-outs stand apart in the source and are kept apart here.

As for `O=C(N[C@@H](Cc1cc(F)cc(F)c1)c1ncccc1-c1ccc2ccncc2c1)NS(=O)(=O)c1ccccc1Cl` [Example 92, (S)-2-chloro-N-((2-(3,5-difluorophenyl)-1-(3-(isoquinolin-7-yl)pyridin-2-yl)ethyl)carbamoyl)benzenesulfonamide, 2 TFA], the EC50 in data set [1] (read-out: Activity) fell in the range of 100 to 1000 nM. The compound further yielded a CC50 at 4 day in data set [2] greater than 100000 nM.
In the case of `COC(=O)Nc1cccc(-n2ccnc2[C@H](Cc2ccccc2)NC(=O)NS(=O)(=O)c2ccccc2C)c1` [Example 76, (S)-methyl (3-(2-(2-phenyl-1-(3-(o-tolylsulfonyl)ureido)ethyl)-1H-imidazol-1-yl)phenyl)carbamate], the EC50 in data set [1] (read-out: Activity) lay in the range of 100 to 1000 nM. The compound also showed a 50% cytotoxic concentration (CC50) at 4 day in data set [2] greater than 100000 nM.
In the same order, the values of `Cc1ccc(-n2ccnc2[C@H](Cc2ccccc2)NC(=O)NS(=O)(=O)c2ccccc2C)cc1Cl` [Example 32, (S)-N-((1-(1-(3-chloro-4-methylphenyl)-1H-imidazol-2-yl)-2-phenylethyl)carbamoyl)-2-methylbenzenesulfonamide] are less than 100 nM and greater than 100000 nM.
On to `Cc1ccccc1S(=O)(=O)NC(=O)N[C@@H](Cc1ccccc1)c1nccn1-c1ccc2c(c1)OCO2` [Example 27, (S)-N-((1-(1-(benzo[d][1,3]dioxol-5-yl)-1H-imidazol-2-yl)-2-phenylethyl)carbamoyl)-2-methylbenzenesulfonamide], for which the EC50 in data set [1] (read-out: Activity) is less than 100 nM; in data set [1] (read-out: EC50), 70 nM. For the same compound, the CC50 at 4 day in data set [2] was greater than 100000 nM.
In the case of `COc1ccc(-n2ccnc2[C@H](Cc2ccccc2)NC(=O)NS(=O)(=O)c2ccccc2C)c(C)c1` [Example 8, (S)-N-((1-(1-(4-methoxy-2-methylphenyl)-1H-imidazol-2-yl)-2-phenylethyl)carbamoyl)-2-methylbenzenesulfonamide], in data set [1] (read-out: Activity), the EC50 was in the range of 100 to 1000 nM. In data set [2], this compound yielded a CC50 at 4 day greater than 100000 nM.
The like results for `NC(=O)c1cc(-c2cccnc2[C@@H](Cc2cc(F)cc(F)c2)NC(=O)NS(=O)(=O)c2ccccc2Cl)ccc1F` [Example 109, (R)-5-(2-(1-(3-((2-chlorophenyl)sulfonyl)ureido)-2-(3,5-difluorophenyl)ethyl)pyridin-3-yl)-2-fluorobenzamide, TFA] were, in that order, greater than 1000 nM and greater than 100000 nM.
For `COC(=O)Nc1ccc(-n2ccnc2[C@H](Cc2ccccc2)NC(=O)NS(=O)(=O)c2cccc3ccccc23)cc1` [Example 3, (S)-methyl (4-(2-(1-(3-(naphthalen-1-ylsulfonyl)ureido)-2-phenylethyl)-1H-imidazol-1-yl)phenyl)carbamate], the EC50 was 100 to 1000 nM in data set [1] (read-out: Activity) and 100 nM in data set [1] (read-out: EC50). Further, the CC50 at 4 day in data set [2] was greater than 100000 nM.
Consider `Cc1ccccc1S(=O)(=O)NC(=O)N[C@H](Cc1cc(F)cc(F)c1)c1ncccc1Br` [Example 107, (R)-N-((1-(3-bromopyridin-2-yl)-2-(3,5-difluorophenyl)ethyl)carbamoyl)-2-methylbenzenesulfonamide, TFA], for which, in data set [1] (read-out: Activity), the EC50 was greater than 1000 nM. In data set [2], this compound registered a CC50 at 4 day greater than 33000 nM.
Regarding `COC(=O)Nc1ccc(-n2ccnc2[C@H](Cc2ccccc2)NC(=O)NS(=O)(=O)c2ccccc2OC(F)(F)F)cc1` [Example 45, (S)-methyl (4-(2-(2-phenyl-1-(3-((2-(trifluoromethoxy)phenyl)sulfonyl)ureido)ethyl)-1H-imidazol-1-yl)phenyl)carbamate], the results for the EC50 in data set [1] (read-out: Activity) and in data set [1] (read-out: EC50) were less than 100 nM and 60 nM, respectively. In data set [2], the CC50 at 4 day is greater than 100000 nM.
With `Cc1ccc(-n2ccnc2[C@H](Cc2ccccc2)NC(=O)NS(=O)(=O)c2ccccc2C)cc1` [Example 13, (S)-2-methyl-N-((2-phenyl-1-(1-(p-tolyl)-1H-imidazol-2-yl)ethyl)carbamoyl)benzenesulfonamide], the EC50 in data set [1] (read-out: Activity) was less than 100 nM. In addition, the CC50 at 4 day in data set [2] is greater than 100000 nM.
On to `O=C(N[C@@H](Cc1ccccc1)c1nccn1-c1ccc2c(c1)CCO2)NS(=O)(=O)c1ccccc1F` [Example 75, (S)-N-((1-(1-(2,3-dihydrobenzofuran-5-yl)-1H-imidazol-2-yl)-2-phenylethyl)carbamoyl)-2-fluorobenzenesulfonamide], for which the EC50 in data set [1] (read-out: Activity) is less than 100 nM; in data set [1] (read-out: EC50), 20 nM. The same compound came in with a CC50 at 4 day in data set [2] greater than 100000 nM.
Take `CCOc1cccc(-n2ccnc2[C@H](Cc2ccccc2)NC(=O)NS(=O)(=O)c2ccccc2C)c1` [Example 24, (S)-N-((1-(1-(3-ethoxyphenyl)-1H-imidazol-2-yl)-2-phenylethyl)carbamoyl)-2-methylbenzenesulfonamide]: the EC50 was 100 to 1000 nM in data set [1] (read-out: Activity) and 600 nM in data set [1] (read-out: EC50). This compound also had a CC50 at 4 day in data set [2] greater than 100000 nM.
Take `Cc1ccccc1S(=O)(=O)NC(=O)N[C@@H](Cc1ccccc1)c1nccn1-c1ccc(OC(F)(F)F)cc1` [Example 11, (S)-2-methyl-N-((2-phenyl-1-(1-(4-(trifluoromethoxy)phenyl)-1H-imidazol-2-yl)ethyl)carbamoyl)benzenesulfonamide]: in data set [1] (read-out: Activity), the EC50 was less than 100 nM. For the same compound, the cytotoxic concentration (CC50) at 4 day in data set [2] was found to be 59000 nM.
With `O=C(N[C@@H](Cc1ccccc1)c1nccn1-c1ccc2occc2c1)NS(=O)(=O)c1ccccc1F` [Example 78, (S)-N-((1-(1-(benzofuran-5-yl)-1H-imidazol-2-yl)-2-phenylethyl)carbamoyl)-2-fluorobenzenesulfonamide], the EC50 in data set [1] (read-out: Activity) is less than 100 nM; in data set [1] (read-out: EC50), 20 nM. This compound also registered a CC50 at 4 day in data set [2] greater than 100000 nM.
Consider `CCOc1ccc(-n2ccnc2[C@H](Cc2ccccc2)NC(=O)NS(=O)(=O)c2cccc(Cl)c2Cl)cc1` [Example 57, (S)-2,3-dichloro-N-((1-(1-(4-ethoxyphenyl)-1H-imidazol-2-yl)-2-phenylethyl)carbamoyl)benzenesulfonamide], for which the EC50 in data set [1] (read-out: Activity) was less than 100 nM; in data set [1] (read-out: EC50), 30 nM. Moreover, the CC50 at 4 day in data set [2] is greater than 100000 nM.
As to `Cc1ccccc1S(=O)(=O)NC(=O)N[C@@H](Cc1cc(F)cc(F)c1)c1ncccc1-c1ccc(F)c2ccccc12` [Example 132, (S)-N-((2-(3,5-difluorophenyl)-1-(3-(4-fluoronaphthalen-1-yl)pyridin-2-yl)ethyl)carbamoyl)-2-methylbenzenesulfonamide, TFA], the EC50 in data set [1] (read-out: Activity) was greater than 1000 nM; in data set [1] (read-out: EC50) it was 4810 nM. In data set [2], this compound displayed a 50% cytotoxic concentration (CC50) at 4 day of 73000 nM.
Turning to `Cc1ccccc1S(=O)(=O)NC(=O)N[C@H](Cc1cc(F)cc(F)c1)c1ncccc1-c1ccc(F)c(C(N)=O)c1` [Example 117, (R)-5-(2-(2-(3,5-difluorophenyl)-1-(3-(o-tolylsulfonyl)ureido)ethyl)pyridin-3-yl)-2-fluorobenzamide, TFA], the EC50 was greater than 1000 nM in data set [1] (read-out: Activity) and 8340 nM in data set [1] (read-out: EC50). This compound displayed a CC50 at 4 day in data set [2] greater than 100000 nM.
For `COc1c(F)cc(F)cc1-c1cccnc1[C@H](Cc1cc(F)cc(F)c1)NC(=O)NS(=O)(=O)c1ccccc1C` [Example 134], the EC50 in data set [1] (read-out: Activity) is greater than 1000 nM. In addition, in data set [2], the CC50 at 4 day is greater than 50000 nM.
Regarding `Cc1ccccc1S(=O)(=O)NC(=O)N[C@@H](Cc1ccccc1)c1nccn1-c1ccc(OC(C)C)cc1` [Example 21, (S)-N-((1-(1-(4-isopropoxyphenyl)-1H-imidazol-2-yl)-2-phenylethyl)carbamoyl)-2-methylbenzenesulfonamide], the EC50 in data set [1] (read-out: Activity) is less than 100 nM; in data set [1] (read-out: EC50) it was 50 nM. In data set [2], this compound had a CC50 at 4 day greater than 100000 nM.
Turning to `O=C(N[C@@H](Cc1ccccc1)c1nccn1-c1ccc2scnc2c1)NS(=O)(=O)c1ccccc1F` [Example 71, (S)-N-((1-(1-(benzo[d]thiazol-5-yl)-1H-imidazol-2-yl)-2-phenylethyl)carbamoyl)-2-fluorobenzenesulfonamide], in data set [1] (read-out: Activity), the EC50 is 100 to 1000 nM. In data set [2], this compound had a CC50 at 4 day greater than 100000 nM.
With `COC(=O)Nc1ccc(-n2ccnc2[C@H](Cc2ccccc2)NC(=O)NS(=O)(=O)Cc2ccccc2)cc1` [Example 47, (S)-methyl (4-(2-(1-(3-(benzylsulfonyl)ureido)-2-phenylethyl)-1H-imidazol-1-yl)phenyl)carbamate], the EC50 in data set [1] (read-out: Activity) is 100 to 1000 nM. Moreover, the CC50 at 4 day in data set [2] was greater than 33000 nM.
Regarding `COC(=O)Nc1ccc(-n2ccnc2[C@H](Cc2ccccc2)NC(=O)NS(=O)(=O)c2cc(Cl)sc2Cl)cc1` [Example 55, (S)-methyl (4-(2-(1-(3-((2,5-dichlorothiophen-3-yl)sulfonyl)ureido)-2-phenylethyl)-1H-imidazol-1-yl)phenyl)carbamate], the EC50 in data set [1] (read-out: Activity) is less than 100 nM. Besides, the CC50 at 4 day in data set [2] is greater than 100000 nM.
Take `COc1ccc(Cn2ccnc2[C@H](Cc2ccccc2)NC(=O)NS(=O)(=O)c2ccccc2C)cc1` [Example 40, (S)-N-((1-(1-(4-methoxybenzyl)-1H-imidazol-2-yl)-2-phenylethyl)carbamoyl)-2-methylbenzenesulfonamide]: the EC50 in data set [1] (read-out: Activity) lay in the range of 100 to 1000 nM. The compound further had a CC50 at 4 day in data set [2] greater than 33000 nM.
In the same order, the values of `Cc1ccccc1S(=O)(=O)NC(=O)N[C@@H](Cc1cc(F)cc(F)c1)c1ncccc1-c1ccc(CN2CCOCC2)s1` [Example 122, (S)-N-((2-(3,5-difluorophenyl)-1-(3-(5-(morpholinomethyl)thiophen-2-yl)pyridin-2-yl)ethyl)carbamoyl)-2-methylbenzenesulfonamide, 2 TFA] are 100 to 1000 nM and greater than 100000 nM.
Take `Cc1ccccc1S(=O)(=O)NC(=O)N[C@H](Cc1cc(F)cc(F)c1)c1ncccc1-c1cncc(F)c1` [Example 103, (R)-N-((2-(3,5-difluorophenyl)-1-(5′-fluoro-[3,3′-bipyridin]-2-yl)ethyl)carbamoyl)-2-methylbenzenesulfonamide, 2 TFA]: the EC50 in data set [1] (read-out: Activity) was greater than 1000 nM. Further, the CC50 at 4 day in data set [2] was greater than 100000 nM.
